Test results: ChEMBL document CHEMBL5136998, “Chasing a Breath of Fresh Air in Cystic Fibrosis (CF): Therapeutic Potential of Selective HDAC6 Inhibitors to Tackle Multiple Pathways in CF Pathophysiology” (J Med Chem, 2022)

Legend:
[1] = Inhibition of human recombinant HDAC3/NcoR2 using RHKKAc as substrate
Histone deacetylase 2 [2] = molecular target: T1, Histone deacetylase 2 (Homo sapiens, UniProt Q92769)
[3] = molecular target: T2, Protein deacetylase HDAC6 (Homo sapiens, UniProt Q9UBN7); test: Inhibition of HDAC6 (unknown origin)
T2 sequence (Q9UBN7 whole entry): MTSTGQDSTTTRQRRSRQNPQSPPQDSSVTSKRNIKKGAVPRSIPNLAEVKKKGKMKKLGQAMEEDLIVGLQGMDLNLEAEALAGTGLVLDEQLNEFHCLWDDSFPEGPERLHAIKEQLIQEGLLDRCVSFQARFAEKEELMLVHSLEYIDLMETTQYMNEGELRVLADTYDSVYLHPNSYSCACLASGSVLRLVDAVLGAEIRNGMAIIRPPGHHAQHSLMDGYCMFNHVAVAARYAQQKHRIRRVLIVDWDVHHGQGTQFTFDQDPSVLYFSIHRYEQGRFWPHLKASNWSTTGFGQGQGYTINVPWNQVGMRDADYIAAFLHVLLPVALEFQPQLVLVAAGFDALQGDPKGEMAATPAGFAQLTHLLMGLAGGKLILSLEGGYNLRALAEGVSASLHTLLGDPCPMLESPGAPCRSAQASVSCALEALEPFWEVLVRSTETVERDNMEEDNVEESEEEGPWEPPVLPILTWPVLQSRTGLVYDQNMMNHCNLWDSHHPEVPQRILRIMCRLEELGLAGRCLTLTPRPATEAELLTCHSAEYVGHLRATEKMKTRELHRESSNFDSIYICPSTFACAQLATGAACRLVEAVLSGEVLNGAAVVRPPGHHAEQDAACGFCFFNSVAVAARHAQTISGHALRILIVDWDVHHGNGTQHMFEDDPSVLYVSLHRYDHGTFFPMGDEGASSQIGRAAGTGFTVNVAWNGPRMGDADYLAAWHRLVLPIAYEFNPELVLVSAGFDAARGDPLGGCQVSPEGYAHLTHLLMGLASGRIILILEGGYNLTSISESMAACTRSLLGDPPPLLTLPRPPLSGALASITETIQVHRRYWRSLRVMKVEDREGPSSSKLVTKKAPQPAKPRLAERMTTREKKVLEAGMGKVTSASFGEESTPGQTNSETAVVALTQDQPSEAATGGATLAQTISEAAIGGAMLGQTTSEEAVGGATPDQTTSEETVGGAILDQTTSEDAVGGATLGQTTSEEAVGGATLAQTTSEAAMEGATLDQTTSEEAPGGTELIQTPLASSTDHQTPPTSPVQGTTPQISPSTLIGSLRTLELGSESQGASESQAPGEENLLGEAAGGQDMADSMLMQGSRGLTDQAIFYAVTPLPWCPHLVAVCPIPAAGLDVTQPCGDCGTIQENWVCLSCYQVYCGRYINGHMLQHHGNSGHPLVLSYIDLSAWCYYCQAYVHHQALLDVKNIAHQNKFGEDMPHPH

Histone deacetylase 3 = Histone deacetylase 3 (Homo sapiens, UniProt O15379); test: Inhibition of HDAC3 (unknown origin)
Histone deacetylase 8 = molecular target: T3, Histone deacetylase 8 (Homo sapiens, UniProt Q9BY41); test: Inhibition of HDAC8 (unknown origin)
T3 sequence (Q9BY41 whole entry): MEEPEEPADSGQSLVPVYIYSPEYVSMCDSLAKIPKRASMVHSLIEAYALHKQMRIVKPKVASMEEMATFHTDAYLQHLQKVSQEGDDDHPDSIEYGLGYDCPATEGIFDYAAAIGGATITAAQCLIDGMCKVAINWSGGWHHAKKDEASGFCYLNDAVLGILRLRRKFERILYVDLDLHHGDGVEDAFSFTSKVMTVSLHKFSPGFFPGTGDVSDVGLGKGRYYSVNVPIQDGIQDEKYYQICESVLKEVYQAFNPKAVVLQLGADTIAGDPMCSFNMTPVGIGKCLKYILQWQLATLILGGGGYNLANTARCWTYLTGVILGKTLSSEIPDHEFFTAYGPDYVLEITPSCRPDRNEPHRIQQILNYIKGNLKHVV

Histone deacetylase 1 [4] = molecular target: T4, Histone deacetylase 1 (Homo sapiens, UniProt Q13547); test: Inhibition of human recombinant HDAC1 using fluorogenic substrate
Histone deacetylase 1 [5] = molecular target: T4, Histone deacetylase 1; test: Inhibition of HDAC1 (unknown origin)
Histone deacetylase 7 = molecular target: T5, Histone deacetylase 7 (Homo sapiens, UniProt Q8WUI4); test: Inhibition of HDAC7 (unknown origin)
T5 sequence (Q8WUI4 whole entry): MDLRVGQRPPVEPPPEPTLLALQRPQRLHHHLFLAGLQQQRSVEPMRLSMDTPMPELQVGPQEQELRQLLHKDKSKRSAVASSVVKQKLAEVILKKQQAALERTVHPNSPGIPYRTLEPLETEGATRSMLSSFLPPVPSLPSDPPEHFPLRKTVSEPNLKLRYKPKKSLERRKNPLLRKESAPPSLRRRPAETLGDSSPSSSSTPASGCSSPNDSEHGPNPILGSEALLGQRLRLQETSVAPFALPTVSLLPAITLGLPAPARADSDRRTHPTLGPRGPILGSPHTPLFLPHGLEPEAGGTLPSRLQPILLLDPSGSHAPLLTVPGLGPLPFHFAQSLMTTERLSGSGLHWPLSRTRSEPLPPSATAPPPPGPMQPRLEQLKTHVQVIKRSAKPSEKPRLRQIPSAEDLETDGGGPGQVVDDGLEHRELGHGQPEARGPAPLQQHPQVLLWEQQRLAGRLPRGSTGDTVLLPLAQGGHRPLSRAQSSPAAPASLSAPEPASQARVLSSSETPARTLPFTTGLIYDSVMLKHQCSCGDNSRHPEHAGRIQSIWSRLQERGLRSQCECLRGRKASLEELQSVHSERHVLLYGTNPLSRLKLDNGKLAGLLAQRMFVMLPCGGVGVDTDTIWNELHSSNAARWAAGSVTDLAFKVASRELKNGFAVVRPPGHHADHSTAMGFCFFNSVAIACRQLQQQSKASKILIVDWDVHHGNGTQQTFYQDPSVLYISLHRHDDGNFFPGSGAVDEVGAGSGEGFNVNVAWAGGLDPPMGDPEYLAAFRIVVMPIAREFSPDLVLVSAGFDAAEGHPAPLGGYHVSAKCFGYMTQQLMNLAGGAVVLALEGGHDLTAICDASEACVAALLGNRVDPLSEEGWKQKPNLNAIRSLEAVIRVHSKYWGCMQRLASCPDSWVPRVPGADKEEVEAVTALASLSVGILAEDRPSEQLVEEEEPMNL

[6] = molecular target: T6, Protein deacetylase HDAC6 (Homo sapiens) (UniProt Q9UBN7); test: Inhibition of HDAC6 derived from human HeLa cell nuclear extract at 100 uM incubated for 2 hrs relative to control; type: cell-free
T6 sequence (whole entry): T2 sequence (Q9UBN7 whole entry)

Histone deacetylase 1 [7] = molecular target: T4, Histone deacetylase 1; test: Inhibition of HDAC1 derived from human HeLa cell nuclear extract at 100 uM incubated for 2 hrs relative to control; type: cell-free
Histone deacetylase 2 [8] = molecular target: T1, Histone deacetylase 2; test: Inhibition of human HDAC2 at 100 uM relative to control
[9] = molecular target: Histone deacetylase 4 (Homo sapiens) (UniProt P56524); test: Inhibition of human HDAC4 at 100 uM relative to control
Chain of Histone deacetylase 4 (Homo sapiens) (P56524 whole entry): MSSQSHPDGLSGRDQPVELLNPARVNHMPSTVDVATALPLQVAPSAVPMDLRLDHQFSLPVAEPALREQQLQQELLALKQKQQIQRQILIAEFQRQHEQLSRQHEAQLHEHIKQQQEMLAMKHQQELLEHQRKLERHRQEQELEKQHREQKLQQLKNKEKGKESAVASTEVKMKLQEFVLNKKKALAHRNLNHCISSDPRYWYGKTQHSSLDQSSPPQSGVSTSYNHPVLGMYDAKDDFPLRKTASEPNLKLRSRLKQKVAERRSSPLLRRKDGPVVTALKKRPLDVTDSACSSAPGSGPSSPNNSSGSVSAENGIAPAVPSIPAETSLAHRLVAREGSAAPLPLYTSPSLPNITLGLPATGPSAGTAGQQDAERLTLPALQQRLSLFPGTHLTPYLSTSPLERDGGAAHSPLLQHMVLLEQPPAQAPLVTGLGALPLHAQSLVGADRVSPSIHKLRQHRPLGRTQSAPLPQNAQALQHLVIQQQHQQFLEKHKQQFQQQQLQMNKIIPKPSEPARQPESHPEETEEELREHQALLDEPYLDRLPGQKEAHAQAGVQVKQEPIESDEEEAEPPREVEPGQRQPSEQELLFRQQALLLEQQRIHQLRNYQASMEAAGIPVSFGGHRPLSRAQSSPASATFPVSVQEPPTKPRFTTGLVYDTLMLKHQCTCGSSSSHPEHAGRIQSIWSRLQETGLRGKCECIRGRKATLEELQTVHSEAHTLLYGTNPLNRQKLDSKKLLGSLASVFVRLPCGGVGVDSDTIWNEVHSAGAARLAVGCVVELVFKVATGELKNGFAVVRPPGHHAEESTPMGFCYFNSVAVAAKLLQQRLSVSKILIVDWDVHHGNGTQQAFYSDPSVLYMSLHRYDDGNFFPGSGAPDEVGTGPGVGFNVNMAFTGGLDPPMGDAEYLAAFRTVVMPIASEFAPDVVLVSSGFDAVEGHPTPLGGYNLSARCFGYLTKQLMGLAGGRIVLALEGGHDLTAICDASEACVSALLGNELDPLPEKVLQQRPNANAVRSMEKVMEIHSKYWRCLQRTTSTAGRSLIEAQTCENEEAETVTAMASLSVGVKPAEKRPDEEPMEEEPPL

T4 sequence (Q13547 whole entry): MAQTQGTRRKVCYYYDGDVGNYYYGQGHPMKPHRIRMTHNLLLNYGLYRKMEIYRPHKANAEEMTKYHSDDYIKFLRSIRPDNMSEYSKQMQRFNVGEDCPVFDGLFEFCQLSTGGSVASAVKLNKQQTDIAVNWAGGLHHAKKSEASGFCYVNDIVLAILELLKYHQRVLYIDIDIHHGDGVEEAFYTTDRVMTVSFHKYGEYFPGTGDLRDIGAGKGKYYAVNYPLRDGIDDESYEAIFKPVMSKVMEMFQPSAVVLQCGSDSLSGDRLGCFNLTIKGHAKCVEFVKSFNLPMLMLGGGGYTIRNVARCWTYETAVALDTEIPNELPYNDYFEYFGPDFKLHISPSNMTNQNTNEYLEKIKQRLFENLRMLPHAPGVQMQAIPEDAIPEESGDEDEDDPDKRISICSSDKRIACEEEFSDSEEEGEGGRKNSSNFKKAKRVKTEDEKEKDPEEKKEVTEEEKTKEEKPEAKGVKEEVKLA
T1 sequence (Q92769 whole entry): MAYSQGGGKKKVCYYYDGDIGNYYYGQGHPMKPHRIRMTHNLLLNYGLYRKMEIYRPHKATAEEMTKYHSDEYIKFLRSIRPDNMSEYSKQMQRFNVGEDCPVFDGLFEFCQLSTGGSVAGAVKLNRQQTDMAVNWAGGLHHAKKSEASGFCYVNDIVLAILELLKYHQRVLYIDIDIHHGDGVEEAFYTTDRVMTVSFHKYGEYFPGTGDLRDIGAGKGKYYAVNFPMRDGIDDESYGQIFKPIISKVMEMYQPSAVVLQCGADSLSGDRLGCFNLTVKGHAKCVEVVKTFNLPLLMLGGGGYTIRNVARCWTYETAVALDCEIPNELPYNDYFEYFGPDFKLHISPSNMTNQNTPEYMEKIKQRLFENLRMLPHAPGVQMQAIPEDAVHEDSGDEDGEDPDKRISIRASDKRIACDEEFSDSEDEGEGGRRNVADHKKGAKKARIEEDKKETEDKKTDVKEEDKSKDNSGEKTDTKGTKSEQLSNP
Chain of Histone deacetylase 3 (O15379 whole entry): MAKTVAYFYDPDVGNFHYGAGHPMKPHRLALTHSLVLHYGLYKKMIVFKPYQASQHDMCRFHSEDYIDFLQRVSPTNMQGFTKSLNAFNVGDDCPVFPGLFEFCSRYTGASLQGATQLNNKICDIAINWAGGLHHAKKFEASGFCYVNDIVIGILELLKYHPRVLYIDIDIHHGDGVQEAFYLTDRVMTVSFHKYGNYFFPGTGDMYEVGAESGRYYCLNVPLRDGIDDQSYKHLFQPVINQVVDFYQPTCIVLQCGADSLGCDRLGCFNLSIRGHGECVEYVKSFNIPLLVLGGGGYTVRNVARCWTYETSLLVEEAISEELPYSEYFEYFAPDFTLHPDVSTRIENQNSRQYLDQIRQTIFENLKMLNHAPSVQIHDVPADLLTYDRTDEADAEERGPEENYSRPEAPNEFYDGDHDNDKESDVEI

Structure (SMILES): CN1CCc2c(c3ccccc3n2Cc2ccc(C(=O)NO)cc2)C1 [TUBASTATIN A]
- IC50 [1]: > 30 µM

Structure (SMILES): CC(C)(C)OC(=O)Nc1cccc(C(=O)/C=C/c2ccc(/C=C/C(=O)NO)cc2)c1
- IC50 (Histone deacetylase 2 [2]): 2.1 µM
- IC50 [3]: 0.011 µM
- IC50 (Histone deacetylase 3): 10.8 µM
- IC50 (Histone deacetylase 8): 1.2 µM

Structure (SMILES): O=C(O)CCCc1ccccc1 [SODIUM PHENYLBUTYRATE]
- IC50 (Histone deacetylase 1 [4]): 162 µM

Structure (SMILES): C[C@@H]1CN(Cc2ccc(C(=O)NO)cc2)C[C@H](C)N1Cc1cccc(Cl)c1
- IC50 (Histone deacetylase 1 [5]): 11.4 µM
- IC50 [3]: 0.041 µM

Structure (SMILES): CCCC(=O)O [BUTYRIC ACID]
- IC50 (Histone deacetylase 1 [5]): 300 µM
- IC50 (Histone deacetylase 2 [2]): 400 µM
- IC50 (Histone deacetylase 7): 300 µM

Structure (SMILES): Oc1ccc(/C=C/c2cc(O)cc(O)c2)cc1
- inhibition [6]: 32%
- inhibition (Histone deacetylase 1 [7]): 39%
- inhibition (Histone deacetylase 2 [8]): 21%
- inhibition [9]: 23%
